Values belong to the molecule of their own block, whether it stands above or below them.
Experiments:
[1] = target: Beta Secretase enzyme (BACE) (Homo sapiens (Human), UniProt P56817); test: In vitro enzymatic BACE FRET assay; type: biochemical; details: read-out: BACE1 Enzyme assay IC50
BACE = BACE (Homo sapiens (Human), UniProt P56817); test: In vitro BACE cell-based assay (Aβ40 in conditioned medium, sandwich ELISA)
Cathepsin D (Cat D) = Cathepsin D (Cat D) (Homo sapiens (Human), UniProt P07339); test: In vitro enzymatic Cathepsin D (Cat D) FRET assay; type: biochemical; details: read-out: CatD IC50
Sequence of Cathepsin D (Cat D) (P07339 65-412, species assumed): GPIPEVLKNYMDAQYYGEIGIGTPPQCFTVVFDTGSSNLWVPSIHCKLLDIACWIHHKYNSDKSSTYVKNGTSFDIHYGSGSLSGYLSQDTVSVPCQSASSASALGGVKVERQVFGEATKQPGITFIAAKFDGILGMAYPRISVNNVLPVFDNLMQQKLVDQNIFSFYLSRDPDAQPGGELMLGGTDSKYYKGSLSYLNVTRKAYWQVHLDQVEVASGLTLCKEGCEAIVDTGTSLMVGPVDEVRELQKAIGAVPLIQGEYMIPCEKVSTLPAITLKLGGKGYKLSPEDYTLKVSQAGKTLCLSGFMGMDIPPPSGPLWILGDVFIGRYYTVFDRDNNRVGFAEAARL

Sequence of BACE (P56817 46-501, species assumed): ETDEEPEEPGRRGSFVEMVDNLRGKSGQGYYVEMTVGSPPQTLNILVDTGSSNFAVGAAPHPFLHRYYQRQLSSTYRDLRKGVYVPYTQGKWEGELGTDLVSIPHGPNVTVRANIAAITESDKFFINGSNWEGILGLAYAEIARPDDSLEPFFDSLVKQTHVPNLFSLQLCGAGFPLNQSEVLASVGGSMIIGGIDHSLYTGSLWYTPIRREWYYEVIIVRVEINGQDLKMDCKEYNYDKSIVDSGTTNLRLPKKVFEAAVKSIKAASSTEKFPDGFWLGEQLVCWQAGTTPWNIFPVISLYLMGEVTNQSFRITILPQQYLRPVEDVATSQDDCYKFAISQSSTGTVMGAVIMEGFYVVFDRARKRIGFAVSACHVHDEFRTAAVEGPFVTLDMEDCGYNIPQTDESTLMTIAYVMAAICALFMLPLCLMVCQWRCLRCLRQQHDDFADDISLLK
Sequence of Beta Secretase enzyme (BACE) (P56817 46-501): as the sequence (P56817 46-501, species assumed) above

IC50 [1]: 0.0076 µM | IC50 (BACE): 0.112 µM | IC50 (Cathepsin D (Cat D)): 360 µM
SMILES: NC1=N[C@@](c2cc(NC(=O)c3cnc(OCC#CC4CC4)cn3)ccc2F)(C(F)F)[C@H]2C[C@H]2O1 [Example 411, N-(3-((1R,5S,6R)-3-amino-5-(difluoromethyl)-2-oxa-4-azabicyclo[4.1.0]hept-3-en-5-yl)-4-fluorophenyl)-5-((3-cyclopropylprop-2-yn-1-yl)oxy)pyrazine-2-carboxamide]

IC50 [1]: 6 µM | IC50 (BACE): 2.53 µM | IC50 (Cathepsin D (Cat D)): 78.9 µM
SMILES: C=C1CC(CNc2ccc(F)c([C@@]3(C(F)F)N=C(N)O[C@@H]4C[C@@H]43)c2)C1 [Example 375, (1R,5S,6R)-5-(difluoromethyl)-5-(2-fluoro-5-(((3-methylenecyclobutyl)methyl)amino)phenyl)-2-oxa-4-azabicyclo[4.1.0]hept-3-en-3-amine]

IC50 [1]: 0.0389 µM | IC50 (BACE): 0.0403 µM | IC50 (Cathepsin D (Cat D)): 1280 µM
SMILES: NC1=N[C@@](c2cc(NC(=O)c3ncc(Cl)cc3F)ccc2F)(C(F)F)[C@H]2C[C@H]2O1 [Example 129]

IC50 [1]: 0.129 µM | IC50 (BACE): 0.984 µM | IC50 (Cathepsin D (Cat D)): 640 µM
SMILES: NC1=N[C@@](c2cc(NC(=O)c3cnc(OCC4CCOCC4)cn3)ccc2F)(C(F)F)[C@H]2C[C@H]2O1 [Example 412, N-(3-((1R,5S,6R)-3-amino-5-(difluoromethyl)-2-oxa-4-azabicyclo[4.1.0]hept-3-en-5-yl)-4-fluorophenyl)-5-((tetrahydro-2H-pyran-4-yl)methoxy)pyrazine-2-carboxamide]

Further lines, the molecule ahead of its results:

SMILES: COc1cnc2c(Nc3ccc(F)c([C@@]4(C(F)F)N=C(N)O[C@@H]5C[C@@H]54)c3)ncc(F)c2c1 [Example 448, (1R,5S,6R)-5-(difluoromethyl)-5-(2-fluoro-5-((5-fluoro-3-methoxy-1,7-naphthyridin-8-yl)amino)phenyl)-2-oxa-4-azabicyclo[4.1.0]hept-3-en-3-amine]
IC50 [1]: 0.117 µM | IC50 (BACE): 0.0863 µM | IC50 (Cathepsin D (Cat D)): 169 µM

SMILES: Cc1cc(C(F)(F)F)cnc1C(=O)Nc1cc(F)c(F)c([C@@]2(CF)N=C(N)O[C@@H]3C[C@@H]32)c1 [Example 51]
IC50 [1]: 0.0627 µM | IC50 (BACE): 0.0143 µM | IC50 (Cathepsin D (Cat D)): 113 µM

SMILES: C#CCOc1cnc(C(=O)Nc2cc(F)c(Cl)c([C@]3(CF)N=C(N)O[C@H]4C[C@H]43)c2)cn1 [Example 318]
IC50 [1]: 4.07 µM | IC50 (BACE): 1.49 µM | IC50 (Cathepsin D (Cat D)): 370 µM

SMILES: COc1cnc(C(=O)Nc2ccc(Cl)c([C@@]3(C(F)F)N=C(N)O[C@@H]4C[C@@H]43)c2)nc1 [Example 104, N-(3-((1R,5S,6R)-3-amino-5-(difluoromethyl)-2-oxa-4-azabicyclo[4.1.0]hept-3-en-5-yl)-4-chlorophenyl)-5-methoxypyrimidine-2-carboxamide]
IC50 [1]: 0.0873 µM | IC50 (BACE): 0.0339 µM | IC50 (Cathepsin D (Cat D)): 374 µM

SMILES: C[C@]1(c2nc(NC(=O)c3ccc(Cl)cn3)ccc2F)N=C(N)O[C@@H]2C[C@@H]21 [Example 326, N-(6-((1R,5S,6R)-3-amino-5-methyl-2-oxa-4-azabicyclo[4.1.0]hept-3-en-5-yl)-5-fluoropyridin-2-yl)-5-chloropicolinamide]
IC50 [1]: 0.242 µM | IC50 (BACE): 0.0323 µM | IC50 (Cathepsin D (Cat D)): 279 µM

SMILES: CC#CCOc1ccc(C(=O)Nc2ccc(F)c([C@@]3(CF)N=C(N)O[C@@H]4C[C@@H]43)c2)nc1 [Example 203, N-(3-((1R,5S,6R)-3-amino-5-(fluoromethyl)-2-oxa-4-azabicyclo[4.1.0]hept-3-en-5-yl)-4-fluorophenyl)-5-(but-2-yn-1-yloxy)picolinamide]
IC50 [1]: 0.0089 µM | IC50 (BACE): 0.0039 µM | IC50 (Cathepsin D (Cat D)): 303 µM

SMILES: COCc1cc(Cl)cnc1C(=O)Nc1ccc(Cl)c([C@@]2(CF)N=C(N)O[C@@H]3C[C@@H]32)c1 [Example 128, N-(3-((1R,5S,6R)-3-amino-5-(fluoromethyl)-2-oxa-4-azabicyclo[4.1.0]hept-3-en-5-yl)-4-chlorophenyl)-5-chloro-3-(methoxymethyl) picolinamide]
IC50 [1]: 0.0508 µM | IC50 (BACE): 0.0161 µM | IC50 (Cathepsin D (Cat D)): 1000 µM

SMILES: Cc1cc(C#N)cnc1C(=O)Nc1cc(F)c(F)c([C@@]2(CF)N=C(N)O[C@@H]3C[C@@H]32)c1 [Example 49]
IC50 [1]: 0.0308 µM | IC50 (BACE): 0.0082 µM | IC50 (Cathepsin D (Cat D)): 202 µM
